Where a SMILES comes first, the peptide text is derived from it. Bridges are numbered along the chain shown (N, C = ends).
Tests used:
TRPV1 = TRPV1 calcium assay (FLIPR); type: cell-based; conditions: Eo1a 10 μM, HEK293, rat TRPV1, Calcium 4 dye, 300 s, compared with capsaicin 300 nM, n = 3 wells
Method: (§1) Human Embryonic Kidney (HEK) 293 cells stably expressing human NaV1.1 to NaV1.7/β1 (SB Drug Discovery, Glasgow, United Kingdom), Chinese Hamster Ovary (CHO) cells stably expressing human NaV1.8/β3 in a tetracycline-inducible system (ChanTest, Cleveland, OH, United States), and HEK293 cells stably expressing rat transient receptor potential vanilloid 1 (TRPV1) were cultured as previously described ([Yin et al., 2020]). Human KV2.1 and NaV1.7 mutants were transiently transfected into HEK293 cells stably expressing β1/β2 using Lipofectamine 2000 (Thermo Fisher Scientific, Scoresby, VIC, Australia) and used for patch-clamp experiments 48 h after transfection. Cells were grown in an incubator at 37°C with 5% CO2 and passaged every 3–4 d (at 70–80% confluency) using TrypLE Express (Thermo Fisher Scientific).
The activity of Eo1a at rTRPV1 was assessed using the assay described previously ([Yin et al., 2020]). Briefly, the TRPV1 activator capsaicin (300 nM) and Eo1a (10 μM) were added to cells loaded with Calcium 4 no-wash dye (Molecular Devices) and changes in fluorescence were assessed using a FLIPR^TETRA (excitation 470–495 nm, emission 515–575 nm) every 1 s for 300 s. Fluorescence responses were normalized to baseline fluorescence (ΔF/F) and plotted versus time using ScreenWorks 3.2.0.14.

[1] = system: NaV1.7 with DII S1-S2 loop of NaV1.8; experiment: Voltage-dependence of activation, NaV1.7/NaV1.8 chimera DII S1-S2; type: cell-based, human; conditions: Eo1a 10 μM; NaV1.7 with NaV1.8 DII S1-S2; HEK293 β1/β2, transient; mean ± SEM, n = 3–6 cells
Method: as §1
(§2) Wild-type (WT) hNaV1.7 cDNA (NM_002,977, a gift from Dr James Cox, University College London) was subjected to in vitro site-directed mutagenesis using the QuikChange™ XL mutagenesis kit (Agilent Technologies) following the manufacturer’s instructions. NaV1.7 mutants were generated by substituting the domain II (DII) S1-S2 loop, the DII S3-S4 loop, the domain IV (DIV) S1-S2 loop and the DIV S3-S4 loop in NaV1.7 with the corresponding regions of NaV1.8. The mutations were verified by sequencing at the Brisbane node of the Australian Genome Research Facility. […]

NaV1.2 = experiment: I-V protocol, whole-cell patch-clamp, NaV1.2; type: cell-based, human; conditions: Eo1a 10 μM
Method: as §1
(§3) Automated whole-cell patch-clamp recordings were performed with a QPatch-16 automated electrophysiology platform (Sophion Bioscience, Ballerup, Denmark) using single-hole (QPlate 16 with a standard resistance of 2 ± 0.4 MΩ) or multi-hole (QPlate 16X with a standard resistance 0.2 ± 0.04 MΩ, NaV1.8 only) as previously described ([McMahon et al., 2020]).
(§4) The extracellular solution (ECS) consisted of (in mM) 145 NaCl (replaced with 70 choline chloride for NaV1.4, NaV1.5 and NaV1.7), 4 KCl, 2 CaCl2, 1 MgCl2, 10 HEPES, and 10 glucose, pH to 7.4 with NaOH (adjusted to 305 mOsm/L with sucrose). For NaV recordings the intracellular solution (ICS) consisted of (in mM) 140 CsF, 1 EGTA, 5 CsOH, 10 HEPES, and 10 NaCl, pH to 7.3 with CsOH (adjusted to 320 mOsm/L with sucrose). For KV2.1 recordings the ICS consisted of (in mM) 50 KCl, 60 KF, 10 EGTA, 10 HEPES, 10 NaCl pH to 7.3 with KOH (adjusted to 320 mOsm/L with sucrose). […]
(§5) The time constant of fast inactivation (τ) was computed by fitting the current decay traces with a single exponential function using QPatch Assay Software 5.6 (Sophion). The time to peak was calculated from pulse onset to peak inward current using QPatch Assay Software 5.6 (Sophion).

NaV1.6 = experiment: I-V protocol, whole-cell patch-clamp, NaV1.6; type: cell-based, human; conditions: Eo1a 10 μM
Method: as §1, §3, §4, §5

NaV1.4 = experiment: I-V protocol, whole-cell patch-clamp, NaV1.4; type: cell-based, human; conditions: Eo1a 10 μM
Method: as §1, §3
(§6) The extracellular solution (ECS) consisted of (in mM) 145 NaCl (replaced with 70 choline chloride for NaV1.4, NaV1.5 and NaV1.7), 4 KCl, 2 CaCl2, 1 MgCl2, 10 HEPES, and 10 glucose, pH to 7.4 with NaOH (adjusted to 305 mOsm/L with sucrose). For NaV recordings the intracellular solution (ICS) consisted of (in mM) 140 CsF, 1 EGTA, 5 CsOH, 10 HEPES, and 10 NaCl, pH to 7.3 with CsOH (adjusted to 320 mOsm/L with sucrose). For KV2.1 recordings the ICS consisted of (in mM) 50 KCl, 60 KF, 10 EGTA, 10 HEPES, 10 NaCl pH to 7.3 with KOH (adjusted to 320 mOsm/L with sucrose). TTX (1 μM) was added to the ECS for NaV1.8 recordings to inhibit background endogenous TTX sensitive current in CHO cells.
(§7) I-V curves were obtained with a holding potential of −90 mV followed by a series of 500 ms step pulses that ranged from −110 to +80 mV in 5-mV increments (repetition interval 5 s) before and after 5 min incubation with Eo1a (10 μM). Conductance-voltage (G-V) curves were obtained by calculating the conductance (G) at each voltage (V) using equation G = I/(V − V rev ), where V rev is the reversal potential. G-V curves were fitted with a Boltzmann equation. […]
as §5

NaV1.7 = experiment: I-V protocol, whole-cell patch-clamp, NaV1.7; type: cell-based, human; conditions: Eo1a 10 μM
Method: as §1, §3, §6, §7, §5

[2] = system: NaV1.7 with DII S3-S4 loop of NaV1.8; experiment: Voltage-dependence of activation, NaV1.7/NaV1.8 chimera DII S3-S4; type: cell-based, human; conditions: Eo1a 10 μM; NaV1.7 with NaV1.8 DII S3-S4; HEK293 β1/β2, transient; mean ± SEM, n = 3–6 cells
Method: as §1, §2

CC[C@H](C)[C@@H]1NC(=O)[C@H](CCCNC(=N)N)NC(=O)[C@@H]2CSSC[C@@H]3NC(=O)CNC(=O)CNC(=O)[C@H](CC(C)C)NC(=O)[C@H](Cc4ccccc4)NC(=O)[C@H](Cc4c[nH]c5ccccc45)NC(=O)[C@H](CCCNC(=N)N)NC(=O)[C@@H](NC(=O)[C@@H](N)CC(=O)O)CSSC[C@H](NC(=O)[C@H](CSSC[C@@H](C(=O)N[C@@H](C)C(=O)N[C@@H](Cc4c[nH]c5ccccc45)C(=O)N[C@@H](CC(=O)O)C(=O)NCC(=O)N[C@H](C(=O)N[C@@H](Cc4ccccc4)C(N)=O)[C@@H](C)O)NC(=O)[C@H](Cc4ccc(O)cc4)NC(=O)[C@H](CCCCN)NC(=O)[C@H]([C@@H](C)CC)NC(=O)[C@H](Cc4ccc(O)cc4)NC(=O)CNC(=O)[C@H](CC(=O)O)NC1=O)NC(=O)[C@H](CC(=O)O)NC(=O)[C@H](CO)NC(=O)[C@H](CC(=O)O)NC(=O)[C@H](CCCCN)NC(=O)[C@H](CO)NC3=O)C(=O)N[C@@H](CCCCN)C(=O)N[C@@H](Cc1c[nH]cn1)C(=O)N[C@@H](CC(C)C)C(=O)N[C@@H](C)C(=O)N2 [Eo1a] (H-DCRWFLGGCSKDSDCCKHLACRIDGYIKYCAWDGTF-NH2; disulfide 2-16, 9-21, 15-30 (inferred); N-terminus assumed)
activity at TRPV1 (Ca2+ dye fluorescence over baseline) (TRPV1): minimal activity | ΔV1/2 activation [1]: −3.7 ± 0.5 mV | V1/2 activation (NaV1.2; 5 min, control −15.9 ± 1.2 mV, *p < 0.05, mean ± SEM, n = 4–6): −21.3 mV | V1/2 inactivation (steady-state fast inactivation) (NaV1.2; 5 min, control −54.6 ± 1.6 mV, mean ± SEM, n = 4–6): −52.7 ± 0.5 | effect on inactivation kinetics (NaV1.2; test pulse −20 mV): minimal effect | V1/2 activation (NaV1.6; 5 min, control −22.7 ± 1.0 mV, *p < 0.05, mean ± SEM, n = 4–6): −35.0 mV | V1/2 inactivation (steady-state fast inactivation) (NaV1.6; 5 min, control −56.3 ± 1.1 mV, mean ± SEM, n = 4–6): −56.2 ± 1.0 | effect on fast inactivation (NaV1.6; test pulse −20 mV): delayed fast-inactivation | peak current I/I0 (NaV1.4; 5 min, peak from I-V protocol at any voltage, normalised to buffer control, HEK293 hNaV1.4/β1, mean ± SEM, n = 4–6 cells): 0.68 ± 0.04 | V1/2 activation (NaV1.4; NaV1.4, 5 min, control −27.6 ± 1.4 mV, mean ± SEM, n = 4–6): −28.8 ± 1.2 mV | V1/2 inactivation (steady-state fast inactivation) (NaV1.4; NaV1.4, 5 min, control −65.8 ± 1.3 mV, mean ± SEM, n = 4–6): −67.6 ± 1.2 | effect on inactivation kinetics (NaV1.4; NaV1.4, test pulse −20 mV): minimal effect | peak current I/I0 (NaV1.7; 5 min, peak from I-V protocol at any voltage, normalised to buffer control, HEK293 hNaV1.7/β1, mean ± SEM, n = 4–6 cells): 0.63 ± 0.10 | V1/2 activation (NaV1.7; NaV1.7, 5 min, control −26.1 ± 1.5 mV, mean ± SEM, n = 4–6): −32.9 ± 2.9 mV | V1/2 inactivation (steady-state fast inactivation) (NaV1.7; NaV1.7, 5 min, control −65.5 ± 1.4 mV, mean ± SEM, n = 4–6): −69.1 ± 4.3 | effect on fast inactivation (NaV1.7; NaV1.7, test pulse −20 mV): delayed fast-inactivation | ΔV1/2 activation [2]: −20.4 ± 1.4 mV

Source: article PMC8795738, “The Tarantula Venom Peptide Eo1a Binds to the Domain II S3-S4 Extracellular Loop of Voltage-Gated Sodium Channel NaV1.8 to Enhance Activation” (Frontiers in Pharmacology, 2022)
